The values below are quoted from earlier work in patent US10864174B2, “Method maintaining iron homeostasis with shogaols” (priority 2016, dated 2020).

In data set [1] the test system is H1299 human lung cancer cells. To be noted: one value given for both cell lines, read-out: IC50, growth inhibition.
The test system of data set [2] is HCT-116 human colon cancer cells. To be noted: one value given for both cell lines, read-out: IC50, growth inhibition.
Another data set concerns arachidonic acid pathway. To be noted: compared with [6]-gingerol.
Data set [3] relates to nitric oxide (NO) synthesis. To be noted: compared with [6]-gingerol.

With `CCCCC[C@H](O)CC(=O)CCc1ccc(O)c(OC)c1` [[6]-gingerol, reference compound], the IC50 in data set [1] and in data set [2] was roughly 150 µM each time.

Regarding `CCCCC/C=C/C(=O)CCc1ccc(O)c(OC)c1` [[6]-shogaol], the IC50 in data set [1] and in data set [2] was roughly 8 µM each time. Moreover, the “inhibitory effects on the arachidonic acid pathway” value in the data set with arachidonic acid pathway is on record as “much stronger inhibitory effects”. For the same molecule, the “inhibitory effects on nitric oxide (NO) synthesis” value in data set [3] is on record as “much stronger inhibitory effects”.
